For six molecules, IC50 results are on record in ChEMBL document CHEMBL1201861, “Genomics of Drug Sensitity in Cancer screening data, Wellcome Trust Sanger Institute”.

“And” between values parts separate entries of the source, which are not always exact repeats. Equal values may be shown once. Where a SMILES comes first, the peptide text is derived from it. The star is where a group is joined. Cbz = O=C(OCc1ccccc1)*

Assay in all cases: cells
For experiment [1], the system named is TE-441-T. Format: functional, cell-based, Homo sapiens.
Description: SANGER: Inhibition of human TE-441-T cell growth in a cell viability assay.
Experiment [2] has as its system TE-15. Type of experiment: functional, cell-based, Homo sapiens.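 Further: cell viability readout of growth inhibition in TE-15 cells.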
Description: SANGER: Inhibition of human TE-15 cell growth in a cell viability assay.
The subject of experiment [3] is SIG-M5. Format: functional, cell-based, Homo sapiens.
Description: SANGER: Inhibition of human SIG-M5 cell growth in a cell viability assay.
Experiment [4] relates to JIYOYE. Format: functional, cell-based, Homo sapiens.
Description: SANGER: Inhibition of human JiyoyeP-2003 cell growth in a cell viability assay.
Experiment [5] concerns CAL-148. Format: functional, cell-based, Homo sapiens.
Description: SANGER: Inhibition of human CAL-148 cell growth in a cell viability assay.
Experiment [6] concerns NCI-H716. Format: functional, cell-based, Homo sapiens.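 Further: growth inhibition of human NCI-H716 cells, measured by a cell viability assay.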
Description: SANGER: Inhibition of human NCI-H716 cell growth in a cell viability assay.
In experiment [7] the test system is ECC4. Type of experiment: functional, cell-based, Homo sapiens.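 Further: growth inhibition of ECC4 cells, read out with a cell viability assay.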
Description: SANGER: Inhibition of human ECC4 cell growth in a cell viability assay.
Experiment [8] relates to SCC-3. Format: functional, cell-based, Homo sapiens.
Description: SANGER: Inhibition of human SCC-3 cell growth in a cell viability assay.
For experiment [9], the system named is GDM-1. Format: functional, cell-based, Homo sapiens.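 Further: cell viability readout used to measure growth inhibition of human GDM-1 cells.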
Description: SANGER: Inhibition of human GDM-1 cell growth in a cell viability assay.
The subject of experiment [10] is TALL-1. Format: functional, cell-based, Homo sapiens.
Description: SANGER: Inhibition of human TALL-1 cell growth in a cell viability assay.
For experiment [11], the system named is HCC1599. Format: functional, cell-based, Homo sapiens.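 Further: growth inhibition of HCC1599 cells, read out in a cell viability assay.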
Description: SANGER: Inhibition of human HCC1599 cell growth in a cell viability assay.
The subject of experiment [12] is SUP-T1. Type of experiment: functional, cell-based, Homo sapiens.
Description: SANGER: Inhibition of human SUP-T1 cell growth in a cell viability assay.
For experiment [13], the system named is NB14. Type of experiment: functional, cell-based, Homo sapiens.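 Further: growth inhibition of NB14 cells measured with a cell viability assay.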
Description: SANGER: Inhibition of human NB14 cell growth in a cell viability assay.
For experiment [14], the system named is SNU-16. Type of experiment: functional, cell-based, Homo sapiens.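 Further: growth inhibition of human SNU-16 cells, determined with a cell viability readout.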
Description: SANGER: Inhibition of human NCI-SNU-16 cell growth in a cell viability assay.
In experiment [15] the test system is RPMI-6666. Format: functional, cell-based, Homo sapiens.
Description: SANGER: Inhibition of human RPMI-6666 cell growth in a cell viability assay.
Experiment [16] has as its system P31-FUJ. Type of experiment: functional, cell-based, Homo sapiens.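 Further: growth inhibition of P31-FUJ cells, read out with a viability assay.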
Description: SANGER: Inhibition of human P31-FUJ cell growth in a cell viability assay.
In experiment [17] the test system is LU-165. Format: functional, cell-based, Homo sapiens.
Description: SANGER: Inhibition of human LU-165 cell growth in a cell viability assay.
Experiment [18] has as its system D-392MG. Format: functional, cell-based. The settings on record: Homo sapiens.
Experiment [19] deals with UMC-11. Format: functional, cell-based. The settings on record: Homo sapiens.
Description: SANGER: Inhibition of human UMC-11 cell growth in a cell viability assay.
Experiment [20] has as its system CAL-85-1. Type of experiment: functional, cell-based. The settings on record: Homo sapiens.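 Further: growth inhibition of human CAL-85-1 cells, read out with a cell viability assay.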
Description: SANGER: Inhibition of human CAL-85-1 cell growth in a cell viability assay.
Experiment [21] has as its system DBTRG-05MG. Type of experiment: functional, cell-based. The settings on record: Homo sapiens.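 Further: cell viability assay measuring growth inhibition of human DBTRG-05MG cells.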
Description: SANGER: Inhibition of human DBTRG-05MG cell growth in a cell viability assay.
The test system of experiment [22] is HSC-3. Format: functional, cell-based. The settings on record: Homo sapiens.
Description: SANGER: Inhibition of human HSC-3 cell growth in a cell viability assay.
In experiment [23] the test system is H4. Format: functional, cell-based. The settings on record: Homo sapiens.
Description: SANGER: Inhibition of human H4 cell growth in a cell viability assay.
Experiment [24] relates to CAL-54. Type of experiment: functional, cell-based. The settings on record: Homo sapiens.
Description: SANGER: Inhibition of human CAL-54 cell growth in a cell viability assay.
Experiment [25] relates to NCI-H2122. Format: functional, cell-based. The settings on record: Homo sapiens.
Description: SANGER: Inhibition of human NCI-H2122 cell growth in a cell viability assay.
Where [26] appears, read: Homo sapiens, GDM-1, read-out: IC50.

On to `COc1cc(N2CCC(N3CCN(C)CC3)CC2)ccc1Nc1ncc(Cl)c(Nc2ccccc2S(=O)(=O)C(C)C)n1` [TAE-684], for which the IC50 in experiment [1] (Homo sapiens, TE-441-T) was above 2000 nM; in experiment [2] (Homo sapiens, TE-15) it was 511 nM; in experiment [3] (Homo sapiens, SIG-M5), 292 nM; in experiment [4] (Homo sapiens, JIYOYE) it was above 2000 nM; in [5] (Homo sapiens, CAL-148) it was above 2000 nM; in [6] (Homo sapiens, NCI-H716), 1070 nM. Further, the IC50 is above 2000 nM in experiment [7] (Homo sapiens, ECC4); below 7.81 nM in experiment [8] (Homo sapiens, SCC-3); 471 nM in [9] (setting [26]); above 2000 nM in experiment [10] (Homo sapiens, TALL-1); above 2000 nM in [11] (Homo sapiens, HCC1599); above 2000 nM in [12] (Homo sapiens, SUP-T1). Further, the IC50 in experiment [13] (Homo sapiens, NB14) is 438 nM; in experiment [14] (Homo sapiens, SNU-16), 727 nM; in experiment [15] (Homo sapiens, RPMI-6666) it was above 2000 nM; in [16] (Homo sapiens, P31-FUJ), above 2000 nM; in experiment [17] (Homo sapiens, LU-165) it was above 2000 nM.
`Cc1cc(N2CCOCC2)cc2[nH]c(-c3c(NC[C@@H](O)c4cccc(Cl)c4)cc[nH]c3=O)nc12`: the 50% inhibitory concentration (IC50) in experiment [1] (Homo sapiens, TE-441-T) is above 5120 nM; in experiment [2] (Homo sapiens, TE-15), 813 nM; in experiment [3] (Homo sapiens, SIG-M5) it was 323 nM; in experiment [4] (Homo sapiens, JIYOYE), 5000 nM; in experiment [5] (Homo sapiens, CAL-148) it was above 5120 nM; in [6] (Homo sapiens, NCI-H716) it was above 5120 nM. The half-maximal inhibitory concentration (IC50) is above 5120 nM in experiment [7] (Homo sapiens, ECC4); above 5120 nM in experiment [8] (Homo sapiens, SCC-3); above 5120 nM in [9] (setting [26]); above 5120 nM in [10] (Homo sapiens, TALL-1); above 5120 nM in [11] (Homo sapiens, HCC1599); above 5120 nM in experiment [12] (Homo sapiens, SUP-T1). For the same molecule, the IC50 in experiment [13] (Homo sapiens, NB14) is above 5120 nM; in experiment [14] (Homo sapiens, SNU-16), 873 nM; in experiment [15] (Homo sapiens, RPMI-6666) it was 3450 nM; in [16] (Homo sapiens, P31-FUJ), above 5120 nM; in experiment [17] (Homo sapiens, LU-165) it was above 5120 nM.
As for `COc1ccc(N(C(=O)Oc2c(C)cccc2C)c2ccnc(Nc3ccc(N4CCN(C)CC4)cc3)n2)c(OC)c1`, the IC50 is above 5120 nM in experiment [1] (Homo sapiens, TE-441-T); 243 nM in [2] (Homo sapiens, TE-15); above 5120 nM in experiment [3] (Homo sapiens, SIG-M5); above 5120 nM in experiment [4] (Homo sapiens, JIYOYE); above 5120 nM in experiment [5] (Homo sapiens, CAL-148); above 5120 nM in experiment [6] (Homo sapiens, NCI-H716). The IC50 is above 5120 nM in [7] (Homo sapiens, ECC4); above 5120 nM in experiment [8] (Homo sapiens, SCC-3); above 5120 nM in experiment [9] (setting [26]); above 5120 nM in [10] (Homo sapiens, TALL-1); above 5120 nM in [11] (Homo sapiens, HCC1599); above 5120 nM in [12] (Homo sapiens, SUP-T1). The IC50 in experiment [13] (Homo sapiens, NB14) is above 5120 nM; in experiment [14] (Homo sapiens, SNU-16) it was 15.7 nM; in experiment [15] (Homo sapiens, RPMI-6666), above 5120 nM; in experiment [16] (Homo sapiens, P31-FUJ), above 5120 nM; in experiment [17] (Homo sapiens, LU-165), above 5120 nM.
As to `Cc1ccc(NC(=O)c2ccc(CN3CCN(C)CC3)cc2)cc1Nc1nccc(-c2cccnc2)n1` [IMATINIB], the IC50 in experiment [1] (Homo sapiens, TE-441-T) was above 2000 nM; in experiment [2] (Homo sapiens, TE-15) it was above 2000 nM; in experiment [4] (Homo sapiens, JIYOYE), above 2000 nM; in experiment [5] (Homo sapiens, CAL-148), above 2000 nM; in [6] (Homo sapiens, NCI-H716) it was above 2000 nM; in [7] (Homo sapiens, ECC4) it was above 2000 nM. For the same molecule, the IC50 in [8] (Homo sapiens, SCC-3) is above 2000 nM; in [9] (Homo sapiens, GDM-1) it was above 2000 nM; in experiment [10] (Homo sapiens, TALL-1), above 2000 nM; in experiment [11] (Homo sapiens, HCC1599), above 2000 nM; in experiment [12] (Homo sapiens, SUP-T1) it was above 2000 nM; in experiment [13] (Homo sapiens, NB14), above 2000 nM. Further, the IC50 was above 2000 nM in experiment [14] (Homo sapiens, SNU-16); above 2000 nM in experiment [15] (Homo sapiens, RPMI-6666); above 2000 nM in experiment [16] (Homo sapiens, P31-FUJ); above 2000 nM in experiment [17] (Homo sapiens, LU-165).
With `CC(C)C[C@@H](C=O)NC(=O)[C@H](CC(C)C)NC(=O)[C@H](CC(C)C)NC(=O)OCc1ccccc1` [MG-132] (Cbz-Leu-Leu-Leu-aldehyde), the IC50 in [1] (te-441-t), in experiment [2] (te-15), in [3] (sig-m5), in [4] (jiyoye), in experiment [5] (cal-148) and in experiment [6] (nci-h716) was above 1000 nM each time. The IC50 in experiment [7] (ecc4) is above 1000 nM; in [8] (Homo sapiens, SCC-3), above 1000 nM; in experiment [8] (scc-3), above 1000 nM; in [9] (gdm-1, read-out: IC50), 351 nM and > 1000 nM; in experiment [18], 191 nM; in experiment [10] (tall-1), above 1000 nM. Also, the IC50 in experiment [11] (hcc1599) was above 1000 nM; in experiment [12] (Homo sapiens, SUP-T1), above 1000 nM; in experiment [12] (sup-t1), above 1000 nM; in experiment [13] (nb14) it was above 1000 nM; in experiment [14] (Homo sapiens, SNU-16) it was above 1000 nM; in [14] (snu-16), above 1000 nM. In addition, the IC50 in [15] (rpmi-6666), in experiment [16] (p31-fuj) and in experiment [17] (lu-165) was above 1000 nM throughout.
With `CO[C@@H]1[C@H](N(C)C(=O)c2ccccc2)C[C@H]2O[C@]1(C)n1c3ccccc3c3c4c(c5c6ccccc6n2c5c31)C(=O)NC4` [MIDOSTAURIN], the IC50 in [19] is above 512 nM; in [20], above 512 nM; in experiment [21] it was above 512 nM; in [22], above 512 nM; in [18] it was 331 nM; in [23], 140 nM. Moreover, the results for the IC50 in experiment [24] and in experiment [25] were 209 nM and 323 nM, respectively.
